Data: PMC8642306 (Lung cancer (Amsterdam, Netherlands), 2021)
“And” between values parts separate entries of the source, which are not always exact repeats. Identical values can stand only once.

Tests used:
[1] = system: patients with advanced lung cancers; settings: human, in vivo
[2] = system: patients with NSCLC; assay: Anti-tumor activity; assay type: in vivo, human
[3] = system: patients with advanced lung cancers; assay: Dose determination; assay type: in vivo, human; settings: for Dose-limiting toxicities (DLTs): cycle 1, with carboplatin-paclitaxel
[4] = system: patients with solid tumors; settings: SNX-5422 alone; cited from earlier work
[5] = Plasma pharmacokinetics after oral SNX-5422; assay type: in vivo, human
[6] = system: head and neck squamous cancer cell lines; settings: cited from earlier work
[7] = SNX-5422 doses of 50, 75, and 100 mg/m^2

CC1(C)CC(=O)c2c(C(F)(F)F)nn(-c3ccc(C(N)=O)c(N[C@H]4CC[C@H](OC(=O)CN)CC4)c3)c2C1 [SNX-5422]
Any treatment-related AE, All Grade [1]: 7 (54) n (%) | Any treatment-related AE, Grade 1 [1]: 1 (8) n (%) | Any treatment-related AE, Grade 2 [1]: 4 (31) n (%) | Any treatment-related AE, Grade 3 [1]: 2 (15) n (%) | Any treatment-related AE, Grade 4 [1]: 0 n (%) | Decreased appetite, All Grade [1]: 2 (15) n (%) | Decreased appetite, Grade 1 [1]: 1 (8) n (%) | Decreased appetite, Grade 2 [1]: 1 (8) n (%) | Decreased appetite, Grade 3 [1]: 0 n (%) | Decreased appetite, Grade 4 [1]: 0 n (%) | Diarrhea, All Grade [1]: 3 (23) n (%) | Diarrhea, Grade 1 [1]: 0 n (%) | Diarrhea, Grade 2 [1]: 1 (8) n (%) | Diarrhea, Grade 3 [1]: 2 (15) n (%) | Diarrhea, Grade 4 [1]: 0 n (%) | Fatigue, All Grade [1]: 2 (15) n (%) | Fatigue, Grade 1 [1]: 1 (8) n (%) | Fatigue, Grade 2 [1]: 1 (8) n (%) | Fatigue, Grade 3 [1]: 0 n (%) | Fatigue, Grade 4 [1]: 0 n (%) | Nausea, All Grade [1]: 2 (15) n (%) | Nausea, Grade 1 [1]: 2 (15) n (%) | Nausea, Grade 2 [1]: 0 n (%) | Nausea, Grade 3 [1]: 0 n (%) | Nausea, Grade 4 [1]: 0 n (%) | Treatment-related decreased appetite [1]: 15% | Treatment-related diarrhea [1]: 23% | Treatment-related fatigue [1]: 15% | Treatment-related grade 3/4 diarrhea [1]: 15% | Treatment-related grade 3/4 nausea [1]: 0% | Treatment-related nausea [1]: 15% | Duration of disease control on single-agent maintenance ([2]; HER2, RET, KRAS, and EGFR-mutations): 4–12 months | Time on SNX-5422 maintenance ([2]; another patient with KRAS-mutant NSCLC, unconfirmed response): ~ 5 months | Time on SNX-5422 maintenance ([2]; one patient with HER2-mutant NSCLC, partial response): 12 months and ~ 12 months | Time on SNX-5422 maintenance prior to progression ([2]; one patient with KRAS-mutant NSCLC, partial response): ~ 7 months | Dose-limiting toxicities (DLTs) ([3]; 50 mg/m^2 cohort (n=3)): no DLTs | Dose-limiting toxicities (DLTs) ([3]; 75 mg/m^2 cohort (n=4)): no DLTs | Maximum tolerated dose (MTD) of SNX-5422 ([3]; qod, in combination with carboplatin (AUC 5) and paclitaxel (175 mg/m^2)): 100 mg/m^2 | Single-agent maximum tolerated dose (MTD) [4]: 100 mg/m^2 | Concentrations of SNX-5422 in samples collected after dosing ([5]; oral SNX-5422): no measurable concentrations

CC1(C)CC(=O)c2c(C(F)(F)F)nn(-c3ccc(C(N)=O)c(N[C@H]4CC[C@H](O)CC4)c3)c2C1 [SNX-2112]
AUC0–24 of SNX-2112, dose proportionality [5, 7]: increased in a slightly greater than proportional manner | Maximum plasma concentration of SNX-2112, dose proportionality [5, 7]: increased in approximate proportion to dose | half-life ([5]; human, plasma, po): ~8 h | Activity with carboplatin and paclitaxel [6]: combinatorial activity
